# Test results as given in US20200009275A1, “PIGMENT-COUPLED MANNOSYL SERUM ALBUMIN COMPLEX AND LYMPH NODE-PROBING COMPOSITION COMPRISING SAME” (priority 2017, published 2020).
# Experiments:
# [1] = Absorption peak and molecular extinction coefficient of pigment-coupled MSA; format: physicochemical; conditions: for Wavelength (absorption peak): scan 350 nm to 850 nm
# Method: The pigment-coupled MSA solution was loaded in a 96-well plate, which was scanned with visible light ranging between 350 nm and 850 nm to measure the absorbance at the peak of absorption spectrum using Varioskan Flash (Thermo Fisher Scientific Inc., Finland) spectrometer. The molecular extinction coefficient was measured by calculating the absorbance per 1 cm length according to Beer-Lambert law.
# [2] = target: T1, MSA (Homo sapiens, UniProt P02768); assay: TLC measurement of pigment not coupled to MSA; format: binding
# T1 construct: purchased Green Cross Corp., Korea
# T1 sequence (P02768 25-609): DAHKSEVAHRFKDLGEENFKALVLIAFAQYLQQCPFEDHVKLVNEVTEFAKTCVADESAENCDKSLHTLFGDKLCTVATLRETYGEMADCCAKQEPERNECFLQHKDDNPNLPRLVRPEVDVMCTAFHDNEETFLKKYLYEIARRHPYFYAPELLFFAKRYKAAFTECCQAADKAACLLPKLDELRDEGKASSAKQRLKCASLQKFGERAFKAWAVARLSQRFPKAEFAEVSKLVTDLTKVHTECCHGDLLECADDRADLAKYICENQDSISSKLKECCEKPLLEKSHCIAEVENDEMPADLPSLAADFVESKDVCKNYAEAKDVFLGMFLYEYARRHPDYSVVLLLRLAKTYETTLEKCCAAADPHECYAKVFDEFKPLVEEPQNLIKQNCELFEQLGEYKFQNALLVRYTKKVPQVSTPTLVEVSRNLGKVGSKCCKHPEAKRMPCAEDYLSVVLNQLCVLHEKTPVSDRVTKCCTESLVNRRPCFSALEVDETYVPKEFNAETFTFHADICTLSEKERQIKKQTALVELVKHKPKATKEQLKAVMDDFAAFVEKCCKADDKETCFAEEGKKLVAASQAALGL
# Method: 2 ml of 200 mg/mL MSA was added thereto to prepare the reaction mixture in total volume of 3 mL. […]
# Upon completion of the reaction, the amount of the pigment not coupled to MSA was measured by performing thin layer chromatography (TLC) with the pigment-coupled MSA hourly. At this time, methanol and methylene chloride (MeOH:MeCl2) mixture was used as a solvent and the results were quantitatively analyzed by multi-gauge 3.0 software using LAS3000 (Fuji Film).
Compound,"ε (molecular extinction coefficient) ([1]; at absorption peak, per 1 cm, Beer-Lambert law)",Wavelength (absorption peak) [1],Percentage of pigment not coupled to MSA ([2]; 10 min),Percentage of pigment not coupled to MSA ([2]; 30 min),Percentage of pigment not coupled to MSA ([2]; 1 hr),Percentage of pigment not coupled to MSA ([2]; 2 hr),Percentage of pigment not coupled to MSA ([2]; 6 hr),Percentage of pigment not coupled to MSA ([2]; 24 hr),Binding of pigment to MSA (in words) ([2]; Table 2),"Binding of pigment to MSA (in words) ([2]; Table 2, listed as naphthol blue black)"
"Nc1c(N=Nc2ccc([N+](=O)[O-])cc2)c(S(=O)(=O)[O-])cc2cc(S(=O)(=O)[O-])c(N=Nc3ccccc3)c(O)c12.[Na+].[Na+] [NBB, naphthol blue black]",62222,620 nm,0.0 ± 0.0%,0.0 ± 0.0%,0.0 ± 0.0%,0.0 ± 0.0%,0.2 ± 0.3%,0.0 ± 0.0%,bind stably and strongly to MSA and high,stably bound
brilliant blue R,,,7.8 ± 0.5%,7.6 ± 0.8%,7.7 ± 0.9%,6.3 ± 0.5%,5.9 ± 0.6%,3.8 ± 0.6%,,
nitrazine yellow [NY],,560 nm,9.6 ± 0.5%,8.4 ± 0.5%,7.2 ± 0.4%,6.4 ± 0.4%,0.4 ± 0.6%,0.1 ± 0.2%,,
